We go through 10 molecules from patent publication US20100093973A1, “POLY(AMINO ACID) COMPOUND HAVING INHIBITORY ACTIVITY ON ABSORPTION OF PHOSPHORUS AND PHOSPHORUS ABSORPTION INHIBITOR” (priority 2007, published 2010).

One data set can be described thus: in vitro. In kind it is cell-based. Particulars: dog. The procedure: MDCK Cells were inoculated into wells of a 96-well plate filled with D-MEM/F12 culture medium (available from GIBCO Company) supplemented with 10% FBS (available from TISSUE CULTURE BIOLOGICALS Company). After the cultivation of the cells for 3 days in a CO2 incubator, the culture medium was removed, a culture medium, in which each candidate substance (synthesized compound) had been dissolved, was added, followed by the cultivation for one day. To each well, there was added 10 μL of Cell Count Reagent SF (available from NAKARAI TESUKU K.K.), followed by the cultivation thereof for 2 hours and the subsequent determination of the absorbance observed at a wavelength of 460 nm. The IC50 values each were calculated on the basis of these measured values.

In another data set the test system is absorption of phosphorus. Nature of the data set: Evaluation of efficacy as phosphorus absorption inhibitors: serum radioactivity AUC (0-120 min) after oral 32P NaH2PO4 in rats, inhibitory rate. In kind it is in vivo. Particulars: rats of SD line, oral dose 100 mg/5 mL/kg, 32P NaH2PO4 given orally 5 min later, serum radioactivity AUC 0-120 min vs control. The procedure: Seven-week-old male rats of SD line (available from SANKYO Labo-Service Co., Ltd.), as test animals, were kept and acclimatized using the usual feed (Solid CRF-1 available from ORIENTAL Yeast Co., Ltd.) and they were used in the following tests after they were fasted overnight. Each candidate substance (synthesized compound) dissolved in distilled water for injection (Otsuka Pharmaceutical Co., Ltd.) was orally administered in a dose of 100 mg/5 mL/kg or 50 mg/5 mL/kg and after 5 minutes from the administration, 3 mg/3 mL/kg, 1 MBq/kg of an NaH2PO4 solution containing ^32P (available from PerkinElmer Company) was orally administered. Subsequently, the blood was collected with the elapse of time through the caudal vein of the test animal to thus obtain the serum thereof and the radioactivity of 40 μL of the serum was determined using a liquid scintillation counter. The inhibitory rate (%) for each candidate compound was calculated on the basis of the foregoing measured values according to the following equation: […]

Structures can show the parent of a compound that is named as a salt.

`NCCCC[C@H](NC(=O)[C@@H](N)CCCCN)C(=O)NCCCN(CCCCN(CCCNC(=O)[C@H](CCCCN)NC(=O)[C@@H](N)CCCCN)C(=O)[C@H](CCCCN)NC(=O)[C@@H](N)CCCCN)C(=O)[C@H](CCCCN)NC(=O)[C@@H](N)CCCCN` [Example 16, SPM(Lys)8 Hydrochloride] showed an IC50 at 1 day in the data set “in vitro” greater than 10000 µg/mL. Moreover, the “Inhibitory Rate (%) of Phosphorus Absorption” value (“Inhibitory Rate (%)” below) in the data set with absorption of phosphorus is recorded as 49%.
In the same order, the values of `NCCCC[C@H](N)C(=O)NCCCC[C@H](N)C(=O)N(CCCCN(CCCNC(=O)[C@@H](N)CCCCN)C(=O)[C@@H](N)CCCCNC(=O)[C@@H](N)CCCCN)CCCNC(=O)[C@@H](N)CCCCN` [Example 6, SPM(Lys)6 Hydrochloride] are greater than 10000 µg/mL and 30%.
Taken in the same sequence, the figures for `NCCCC[C@H](N)C(=O)NCCCC[C@H](NC(=O)[C@@H](N)CCCCN)C(=O)NCCCN(CCCCN(CCCNC(=O)[C@H](CCCCNC(=O)[C@@H](N)CCCCN)NC(=O)[C@@H](N)CCCCN)C(=O)[C@H](CCCCNC(=O)[C@@H](N)CCCCN)NC(=O)[C@@H](N)CCCCN)C(=O)[C@H](CCCCNC(=O)[C@@H](N)CCCCN)NC(=O)[C@@H](N)CCCCN` [Example 2, SPM(Lys)12 Hydrochloride] were greater than 10000 µg/mL and 52%.
Turning to `NCCCC[C@H](N)C(=O)N(CCCCN(CCCNC(=O)[C@@H](N)CCCN)C(=O)[C@@H](N)CCCCN)CCCNC(=O)[C@@H](N)CCCN` [Example 13, SPM(Orn)2(Lys)2 Hydrochloride], the IC50 at 1 day in “in vitro” is greater than 10000 µg/mL. The “Inhibitory Rate (%)” value with absorption of phosphorus turned out to be 36%.
In the same order, the values of `NCCCC[C@H](NC(=O)[C@H](CCCCN)NC(=O)[C@@H](N)CCCCN)C(=O)NCCCN(CCCCN(CCCNC(=O)[C@H](CCCCN)NC(=O)[C@H](CCCCN)NC(=O)[C@@H](N)CCCCN)C(=O)[C@H](CCCCN)NC(=O)[C@H](CCCCN)NC(=O)[C@@H](N)CCCCN)C(=O)[C@H](CCCCN)NC(=O)[C@H](CCCCN)NC(=O)[C@@H](N)CCCCN` [Example 20, SPM(Lys)12 Hydrochloride] are greater than 10000 µg/mL and 60%.
In the same order, the values of `NCCC[C@H](NC(=O)[C@H](CCCN)NC(=O)[C@@H](N)CCCN)C(=O)NCCCN(CCCCN(CCCNC(=O)[C@H](CCCN)NC(=O)[C@H](CCCN)NC(=O)[C@@H](N)CCCN)C(=O)[C@H](CCCN)NC(=O)[C@H](CCCN)NC(=O)[C@@H](N)CCCN)C(=O)[C@H](CCCN)NC(=O)[C@H](CCCN)NC(=O)[C@@H](N)CCCN` [Example 28, SPM(Orn)12 Hydrochloride] are greater than 10000 µg/mL and 66%.
Taken in the same sequence, the figures for `N=C(N)NCCC[C@H](N)C(=O)NCCCN(CCCCN(CCCNC(=O)[C@@H](N)CCCNC(=N)N)C(=O)[C@@H](N)CCCNC(=N)N)C(=O)[C@@H](N)CCCNC(=N)N` [Example 5, SPM(Arg)4 Hydrochloride] were greater than 10000 µg/mL and 52%.
In turn, `NCCCC[C@H](N)C(=O)NCCCC[C@H](N)C(=O)NCCCN(CCCCN(CCCNC(=O)[C@@H](N)CCCCNC(=O)[C@@H](N)CCCCN)C(=O)[C@@H](N)CCCCNC(=O)[C@@H](N)CCCCN)C(=O)[C@@H](N)CCCCNC(=O)[C@@H](N)CCCCN` [Example 15, SPM(Lys)8 Hydrochloride] displayed an IC50 at 1 day in “in vitro” greater than 10000 µg/mL. The “Inhibitory Rate (%)” value with absorption of phosphorus came to 33%.
Turning to `NCCCC[C@H](N)C(=O)NCCCC[C@H](NC(=O)[C@@H](N)CCCCN)C(=O)N(CCCN)CCCCN(CCCN)C(=O)[C@H](CCCCNC(=O)[C@@H](N)CCCCN)NC(=O)[C@@H](N)CCCCN` [Example 12, SPM(Lys)6 Hydrochloride], the IC50 at 1 day in “in vitro” is greater than 10000 µg/mL. In addition, the “Inhibitory Rate (%)” value with absorption of phosphorus is 43%.
In the same order, the values of `NCCC[C@H](N)C(=O)NCCC[C@H](N)C(=O)NCCCN(CCCCN(CCCNC(=O)[C@@H](N)CCCNC(=O)[C@@H](N)CCCN)C(=O)[C@@H](N)CCCNC(=O)[C@@H](N)CCCN)C(=O)[C@@H](N)CCCNC(=O)[C@@H](N)CCCN` [Example 14, SPM(Orn)8 Hydrochloride] are greater than 10000 µg/mL and 46%.
